One experiment relates to Johnsongrass. Nature of the experiment: Effect of clethodim and GA3 treatments on Johnsongrass, field plots (Example 1). It counts as in vivo, sorghum halepense. As to the method:
In order to determine the efficacy of combinations of clethodim and GA3, numerous treatments were applied to plots in an area with abundant Johnsongrass growth.
The percent control of Johnsongrass plants was evaluated at 7, 18 and 28 days following the treatment. Effect of Clethodim and GA3 Treatments on Johnsongrass (% control).”
The percent control refers to the amount of dead tissue on the plants present. It would be dead plants plus desiccated foliage on partially killed plants.

Experiment [1] relates to Glyphosate resistant corn. The experiment in a line: Effect of clethodim and GA3 treatments on planted glyphosate resistant corn (Example 2). Type of experiment: in vivo. The protocol: A further study was performed in order to confirm the effect clethodim and GA3 treatments have on corn. Glyphosate resistant corn was planted with a conventional four-row planter. Treatments were applied 28 days after the plantings.
Effect of Clethodim and GA3 Treatments on corn (% control).

Regarding `CCSC(C)CC1CC(=O)C(C(CC)=NOC/C=C/Cl)=C(O)C1` (centres unmarked) [Clethodim, 2-[1-[[[(2E)-3-chloro-2-propen-1-yl]oxy]imino]propyl]-5-[2-(ethylthio)propyl]-3-hydroxy-2-cyclohexen-1-one], the Johnsongrass % control in the experiment with Johnsongrass (7 DAT, clethodim 32 x g ai/a (9 fl oz/a of Selectmax), with 0.25% v/v NIS and 2.5 lb/acre AMS) was found to be 37.21%; in the experiment with Johnsongrass (18 DAT, clethodim 32 x g ai/a (9 fl oz/a of Selectmax), with 0.25% v/v NIS and 2.5 lb/acre AMS) it was 85.66%; in the experiment on Johnsongrass (28 DAT, clethodim 32 x g ai/a (9 fl oz/a of Selectmax), with 0.25% v/v NIS and 2.5 lb/acre AMS), 89.26%. The Corn % control in experiment [1] (6 DAT, clethodim 32 gm ai/a, with NIS and AMS) came out at 48.33%; in experiment [1] (13 DAT, clethodim 32 gm ai/a, with NIS and AMS), 88.33%; in experiment [1] (29 DAT, clethodim 32 gm ai/a, with NIS and AMS), 96.00%. Further, in experiment [1] (in vivo), the “Activity of clethodim on corn in the presence of GA3” value was “significantly increased”.
In the case of `C=C1C[C@]23C[C@@]1(O)CC[C@H]2[C@@]12C=C[C@H](O)[C@@](C)(C(=O)O1)[C@H]2[C@@H]3C(=O)O` [GA3, Gibberellic acid], the Johnsongrass % control with Johnsongrass (7 DAT, GA3 5 g ai/a (5 fl oz/a of ProGibb 4%)) is reported as 0%; with Johnsongrass (7 DAT, GA3 25 g ai/a (25 fl oz/a of ProGibb 4%)) it was 0%; in the experiment on Johnsongrass (18 DAT, GA3 5 g ai/a (5 fl oz/a of ProGibb 4%)) it was 0.32%; with Johnsongrass (18 DAT, GA3 25 g ai/a (25 fl oz/a of ProGibb 4%)), 0%; in the experiment with Johnsongrass (28 DAT, GA3 5 g ai/a (5 fl oz/a of ProGibb 4%)) it was 0%; in the experiment with Johnsongrass (28 DAT, GA3 25 g ai/a (25 fl oz/a of ProGibb 4%)), 0%. Also, in the experiment with Johnsongrass (seven days following treatment), the “Effect of GA3 on the activity of clethodim on Johnsongrass” value is given as “more than doubles the activity of clethodim”. Moreover, the Corn % control in experiment [1] (6 DAT, GA3 3 g ai/a, with 0.25% v/v NIS and 2.5 lb/acre AMS) turned out to be 0%; in experiment [1] (6 DAT, GA3 10 g ai/a, with NIS and AMS), 0%; in experiment [1] (13 DAT, GA3 3 g ai/a, with NIS and AMS), 0%; in experiment [1] (13 DAT, GA3 10 g ai/a, with NIS and AMS), 0%; in experiment [1] (29 DAT, GA3 3 g ai/a, with NIS and AMS), 0%; in experiment [1] (29 DAT, GA3 10 g ai/a, with NIS and AMS), 0%.

The record behind these values is US20140128260A1, “Compositions and Methods for Post Emergent Weed Control with Dim Herbicides and Gibberellic Acid” (Valent U.S.A. Corporation, priority 2012, published 2014).
